Data published in PubChem BioAssay (NCI).
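Cultured in 96-well plates, cells were exposed to test compound for 48 hours across five concentrations. At the TGI there is no net growth.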

Tests used:
Assay in all cases: growth of human tumour cells (NCI), 48 h
HT29 colon = system: HT29 colon
KM20L2 colon = system: KM20L2 colon
LXFL 529 NSCLC = system: LXFL 529 NSCLC
M19-MEL melanoma = system: M19-MEL melanoma
NCI-H460 lung = system: NCI-H460 lung
NCI-H522 lung = system: NCI-H522 lung
SF-295 CNS = system: SF-295 CNS
SK-MEL-28 melanoma = system: SK-MEL-28 melanoma
SNB-78 CNS = system: SNB-78 CNS
SW-620 colon = system: SW-620 colon
A498 renal = system: A498 renal
MDA-MB-435 = system: MDA-MB-435

Structure (SMILES) | TGI (HT29 colon) [µM] | TGI (KM20L2 colon) [µM] | TGI (LXFL 529 NSCLC) [µM] | TGI (M19-MEL melanoma) [µM] | TGI (NCI-H460 lung) [µM] | TGI (NCI-H522 lung) [µM] | TGI (SF-295 CNS) [µM] | TGI (SK-MEL-28 melanoma) [µM] | TGI (SNB-78 CNS) [µM] | TGI (SW-620 colon) [µM] | TGI (A498 renal) [µM] | TGI (MDA-MB-435) [µM]
CCC(/C(=N/NC(=O)C[N+](C)(C)C)c1ccccc1)C1OC(=O)c2ccccc21 (stereo not given) | > 100 | > 100 | > 100 | > 100 | > 100 | > 100 | > 100 | > 100 | > 100 | > 100 | – | –
O=S1(=O)CC#CC[C@@H](CO)[C@@H](CO)CC#CC1 | > 100 | > 100 | > 100 | > 100 | > 100 | 32.6 | > 100 | > 100 | > 100 | > 100 | – | –
Cc1cc(NCCCCCCCCNc2cc(C)nc3cc(N(C)C)ccc23)c2ccc(N(C)C)cc2n1 | – | 27.3 | 16 | 10.8 | 19.5 | 12.9 | 30.2 | 4.48 | > 100 | 87.6 | 42.6 | –
C#CCN(Cc1ccc2nc(-c3ccccc3)c(Cl)nc2c1)c1ccc(Cl)c(Cl)c1 | > 100 | > 100 | > 100 | > 100 | > 100 | > 100 | > 100 | > 100 | > 100 | > 100 | > 100 | –
COc1ccc(NC(=O)CC2SC(=Nc3ccc(Cl)cc3C)NC2=O)c([N+](=O)[O-])c1 (stereo not given) | > 100 | > 100 | > 100 | > 100 | > 100 | > 100 | > 100 | > 100 | > 100 | > 100 | > 100 | –
Cc1ccc(C2=C(c3ccccc3)C(O)(c3ccccc3)C(c3ccccc3)=C2c2ccc(C)cc2)cc1 | > 100 | > 100 | > 100 | > 100 | > 100 | > 100 | > 100 | > 100 | > 100 | > 100 | > 100 | –
Nc1nc2c(nnn2C2C=C(CO)C(O)C2O)c(=O)[nH]1 (stereo not given) | > 100 | > 100 | > 100 | > 100 | > 100 | > 100 | > 100 | > 100 | > 100 | > 100 | > 100 | –
OCC1OC(NO)C(O)C(O)C1O (stereo not given) | > 100 | > 100 | > 100 | > 100 | > 100 | > 100 | > 100 | > 100 | > 100 | > 100 | > 100 | –
Cc1nc2cc3[nH]c4ccccc4c(=O)c3cc2s1 | > 100 | > 100 | > 100 | > 100 | > 100 | > 100 | > 100 | – | > 100 | > 100 | > 100 | –
O=S(=O)(O)c1ccc([Se][Se]c2ccc(S(=O)(=O)O)cc2)cc1 | > 100 | > 100 | > 100 | > 100 | > 100 | > 100 | > 100 | > 100 | > 100 | > 100 | > 100 | –
CC1=NN(c2ccccc2)C(=O)C1N=Nc1ccc(Br)cc1C (stereo not given) | > 100 | > 100 | > 100 | > 100 | > 100 | – | > 100 | > 100 | > 100 | > 100 | > 100 | –
N#Cc1cc([N+](=O)[O-])ccc1NC(=O)C(=O)Nn1c(=S)[nH]c2ccccc2c1=O | > 100 | > 100 | > 100 | > 100 | > 100 | > 100 | > 100 | > 100 | > 100 | > 100 | > 100 | –
O=C(NNC(=O)/C(=C/c1cccc([N+](=O)[O-])c1)NC(=O)c1ccccc1)Nc1ccc(Cl)cc1 | 27.8 | 32.4 | 23.5 | 29.1 | 29.9 | 25.7 | 34.3 | 30.8 | > 100 | 28.5 | 23.4 | –
O=C1/C(=C/c2ccc(C(=O)O)cc2)CNC/C1=C\c1ccc(C(=O)O)cc1 | > 100 | > 100 | > 100 | > 100 | > 100 | – | > 100 | > 100 | > 100 | – | > 100 | –
Clc1cc2ns[s+]c2cc1Cl | > 100 | > 100 | > 100 | > 100 | > 100 | > 80.5 | > 100 | > 100 | > 100 | > 100 | > 100 | –
COc1ccc(/C=C2\CCC(C)(CN(C)C)C2=O)cc1Br (stereo not given) | 49.6 | 17.7 | 31.8 | 32.4 | > 57.2 | 32.8 | 80.7 | 45.4 | 86 | 38.4 | 50 | 44
CN1C(=O)CC(CC(=O)C2CCCCC2=O)CC1=O (stereo not given) | > 100 | > 100 | > 100 | > 100 | > 100 | > 100 | > 100 | > 100 | > 100 | > 100 | > 100 | –
C/C(COc1ccccc1)=N\NC(N)=S | > 100 | > 100 | > 100 | > 100 | – | – | > 100 | > 100 | > 100 | > 100 | > 100 | –
CCOC1=C2N=C(C(CC)c3ccc(F)cc3)N=C2C(=O)c2ccccc21 (stereo not given) | 45.3 | 50.7 | > 90.3 | > 59.4 | > 79.8 | 76.7 | 63.7 | > 89.4 | 89.8 | > 100 | – | –
